Counter-ions that a name gives are not always drawn. Like-named read-outs stand apart in the source and are kept apart here.
Key:
interferon (α) = experiment: Cytokine induction in human cells: interferon (α) by ELISA; format: cell-based; details: human PBMCs, 18 to 24 hours incubation, ELISA of culture supernatant, read-out: Lowest Effective Concentration (μM) Interferon
[1] = system: tumor necrosis factor (α); experiment: Cytokine induction in human cells: tumor necrosis factor (α) by ELISA; format: cell-based; details: human PBMCs, 18 to 24 hours incubation, ELISA of culture supernatant, read-out: Lowest Effective Concentration (μM) Tumor Necrosis Factor

melting point | SMILES | minimal effective concentration (interferon (α); Homo sapiens, PBMC) [µM] | minimal effective concentration ([1]; Homo sapiens, PBMC) [µM] | minimal effective concentration (interferon (α)) [µM] | minimal effective concentration [1] [µM]
203.1 to 205 °C | CCCCc1nc2c(N)nc3ccccc3c2n1CCCCNS(=O)(=O)c1ccc(N)cc1 (as salt: hydrochloride) |  |  |  | 
191 to 193 °C | COCCc1nc2c(N)nc3c(c2n1CCCCNS(=O)(=O)c1ccc(F)cc1)CCCC3 [Example 14, N^1-{4-[4-Amino-2-(2-methoxyethyl)-6,7,8,9-tetrahydro-1H-imidazo[4,5-c]quinolin-1-yl]butyl}-4-fluoro-1-benzenesulfonamide] |  |  |  | 
78.1 to 79.5 °C | COc1ccc(Cc2nc3c(N)nc4ccccc4c3n2CCCCNS(C)(=O)=O)cc1 [Example 12, N-[4-(4-Amino-2-(4-methoxybenzyl)-1H-imidazo[4,5-c]quinolin-1-yl]butyl]methanesulfonamide] |  |  |  | 
75.5 to 79 °C | CCCCc1nc2c(N)nc3ccccc3c2n1CCCCNS(=O)(=O)c1ccccc1 [Example 5, N^1-[4-(4-Amino-2-butyl-1H-imidazo [4,5-c]quinolin-1-yl)butyl]-1-benzenesulfonamide] |  |  |  | 
96 °C (dec.) | CCCCc1nc2c(N)nc3ccccc3c2n1CCCCNS(=O)(=O)c1ccc([N+](=O)[O-])cc1 (as salt: hydrochloride) [Example 9, N^1-[4-(4-Amino-2-butyl-1H-imidazo[4,5-c]quinolin-1-yl)butyl]-4-nitro-1-benzenesulfonamide Hydrochloride] |  |  |  | 
176 to 178.2 °C | CCCCc1nc2c(N)nc3ccccc3c2n1CCCCNS(=O)(=O)c1cccc([N+](=O)[O-])c1 (as salt: hydrochloride) [Example 7, N^1-[4-(4-Amino-2-butyl-1H-imidazo[4,5-c]quinolin-1-yl)butyl]-3-nitro-1-benzenesulfonamide Hydrochloride] |  |  |  | 
110.2 °C (dec.) | CCCCc1nc2c(N)nc3ccccc3c2n1CCCCNS(=O)(=O)c1cccc(N)c1 (as salt: hydrochloride) |  |  |  | 
96 °C (dec.) | CCCCc1nc2c(N)nc3ccccc3c2n1CCCCNS(=O)(=O)c1cccc2cnccc12 [Example 11, N^5-[4-(4-Amino-2-butyl-1H-imidazo[4,5-c]quinolin-1-yl)butyl]-5-isoquinolinesulfonamide] | 0.01 | 1.11 |  | 
214 to 216 °C | Nc1nc2ccccc2c2c1nc(-c1ccccc1)n2CCCCNS(=O)(=O)c1ccc(F)cc1 [Example 15, N-[4-(4-Amino-2-phenyl-1H-imidazo[4,5-c]quinolin-1-yl)butyl]-4-fluoro-1-benzenesulfonamide] |  |  |  | 
137.5 to 141.5 °C | CCCCc1nc2c(N)nc3ccccc3c2n1CCCCNS(=O)(=O)c1cccs1 [Example 3, N^2-[4-(4-Amino-2-butyl-1H-imidazo[4,5-c]quinolin-1-yl)butyl]-2-thiophenesulfonamide] |  |  | 0.01 | 
223 to 224 °C | CCCCc1nc2c(N)nc3ccccc3c2n1CCCCNS(=O)(=O)c1cccc2c(N(C)C)cccc12 [Example 1, N^1-[4-(4-Amino-2-butyl-1H-imidazo[4,5-c]quinolin-1-yl)butyl]-5-(dimethylamino)-1-naphthalenesulfonamide] | 0.12 | 3.33 |  | 
 | CCCCc1nc2c(N)nc3ccccc3c2n1CCCCNS(=O)(=O)c1ccc(Cl)cc1Cl [Example 92] | 0.1 | 10 |  | 
 | CCCCc1nc2c(N)nc3ccccc3c2n1CCCCNS(=O)(=O)c1cccc2ccccc12 [Example 41] | 0.01 | > 30 |  | 
 | CCCCc1nc2c(N)nc3ccccc3c2n1CCCCNS(=O)(=O)c1ccc(C(=O)O)cc1 [Example 84] | 1 | 10 |  | 
 | COCCc1nc2c(N)nc3ccccc3c2n1CCCCNS(=O)(=O)c1ccc(C#N)cc1 [Example 160] | 0.001 | 1 |  | 
 | COCCc1nc2c(N)nc3ccccc3c2n1CCCCNS(=O)(=O)c1cccc(F)c1 [Example 122] | 0.0001 | 1 |  | 
 | COCCc1nc2c(N)nc3ccccc3c2n1CCCCNS(=O)(=O)c1ccccc1 [Example 158] | 0.0001 | 1 |  | 
 | CCCCc1nc2c(N)nc3ccccc3c2n1CCCCNS(=O)(=O)c1ccc(F)cc1 [Example 87] | 0.001 | 1 |  | 
197 to 199.5 °C | CCCCc1nc2c(N)nc3ccccc3c2n1CCCCNS(=O)(=O)Cc1ccccc1 [Example 4, N-[4-(4-Amino-2-butyl-1H-imidazo[4,5-c]quinolin-1-yl)butyl]phenylmethanesulfonainide] |  |  |  | 

melting point | SMILES | minimal effective concentration (interferon (α); Homo sapiens, PBMC) [µM] | minimal effective concentration ([1]; Homo sapiens, PBMC) [µM] | minimal effective concentration (interferon (α)) [µM] | minimal effective concentration [1] [µM]
234 to 235 °C | CS(=O)(=O)NCCCCn1c(-c2ccccc2)nc2c(N)nc3ccccc3c21 [Example 16, N-[4-(4-Amino-2-phenyl-1H-imidazo[4,5-c]quinolin-1-yl)butyl]methanesulfonamide] |  |  |  | 
 | CCCCc1nc2c(N)nc3ccccc3c2n1CCNS(=O)(=O)c1cccc2cccnc12 [Example 30] | 1.11 | > 30 |  | 
 | CCCCc1nc2c(N)nc3ccccc3c2n1CCCCNS(=O)(=O)c1cc(F)ccc1C [Example 106] | 1 | 1 |  | 
200 to 201 °C | CN(C)c1cccc2c(S(=O)(=O)NCCCCn3cnc4c(N)nc5ccccc5c43)cccc12 [Example 2, N^1-[4-(4-Amino-1H-imidazo[4,5-c]quinolin-1-yl)butyl]-5-(dimethylamino)-1-naphthalenesulfonamide] | > 30 | > 30 |  | 
 | CCOCc1nc2c(N)nc3ccccc3c2n1CCNS(=O)(=O)c1cccc2c(N(C)C)cccc12 [Example 110] | 10 | > 10 |  | 
 | CCCCc1nc2c(N)nc3ccccc3c2n1CCCCNS(=O)(=O)c1ccc(C(F)(F)F)cc1[N+](=O)[O-] [Example 79] | 0.01 | 1 |  | 
 | CCCCc1nc2c(N)nc3ccccc3c2n1CCCCNS(C)(=O)=O [Example 6, N^1-[4-(4-Amino-2-butyl-1H-imidazo[4,5-c]quinolin-1-yl)butyl]methanesulfonamide] |  |  | 0.00017 | 1.11
 | CCCCc1nc2c(N)nc3ccccc3c2n1CCCCNS(=O)(=O)c1c(F)cccc1F [Example 93] | 0.001 | 0.1 |  | 
 | Nc1nc2c(c3c1ncn3CCCCNS(=O)(=O)c1cccs1)CCCC2 [Example 57] | 3.33 | > 30 |  | 
 | CCCCCCCCS(=O)(=O)NCCn1c(CCCC)nc2c(N)nc3ccccc3c21 [Example 18] | 3.33 | > 30 |  | 
 | CCCCc1nc2c(N)nc3ccccc3c2n1CCNS(=O)(=O)c1cc(Br)ccc1OC [Example 24] | 0.12 | 30 |  | 
 | CCCCc1nc2c(N)nc3ccccc3c2n1CCCCNS(=O)(=O)/C=C/c1ccccc1 [Example 50] | 0.12 | > 30 |  | 
 | CCCCc1nc2c(N)nc3ccccc3c2n1CCCCNS(=O)(=O)c1ccc2ccccc2c1 [Example 42] | 0.01 | > 30 |  | 
 | COCCc1nc2c(N)nc3c(c2n1CCCCNS(=O)(=O)Cc1ccccc1)CCCC3 [Example 211] | 0.0001 | 1 |  | 
 | CCCCCCCCS(=O)(=O)NCCCCn1cnc2c(N)nc3c(c21)CCCC3 [Example 56] | > 30 | > 30 |  | 
 | CCCCc1nc2c(N)nc3ccccc3c2n1CCCCNS(=O)(=O)c1ccc(-c2ccccc2)cc1 [Example 96] | 1 | > 10 |  | 
 | CCCCc1nc2c(N)nc3ccccc3c2n1CCCCNS(=O)(=O)c1cc(Cl)ccc1OC [Example 100] | 0.01 | 10 |  | 
 | COCCc1nc2c(N)nc3ccccc3c2n1CCCCNS(=O)(=O)C[C@]12CCC(CC1=O)C2(C)C [Example 148] | 0.0001 | 1 |  | 
 | COCCc1nc2c(N)nc3c(c2n1CCCCNS(=O)(=O)c1ccccc1)CCCC3 [Example 210] | 0.0001 | 1 |  | 

Reference: patent US6825350B2, “Sulfonamide and sulfamide substituted imidazoquinolines and methods for the treatment of periodontal disease using these and other immune response modifiers” (3M Innovative Properties Company, priority 1999, dated 2004)
